Test results: US20210371899A1, “METHOD AND KIT FOR […], AND PLASMID, BACULOVIRUS, CELL AND METHOD OF PREPARING THE SAME FOR PESTICIDE DETECTIONS” (priority 2018, published 2021)
Where two headings read alike, the source gives them in different places.

Tests used:
[1] = target: T1, AChE-FL (full-length AChE Y408F displayed on Hi5 cells) (Drosophila melanogaster, UniProt P07140, R99G/Y408F); test: Inhibition of cell-surface displayed AChE-FL (Ellman's method, ATCh/DTNB, 412 nm); format: biochemical
T1 construct: honeybee mellitin signal peptide (HM) (N); expressed in transfected cells; host or cells: Trichoplusia ni High Five (Hi5) cells infected with recombinant baculovirus vAChE-FL, lyophilised in the plate
Protocol: (§1) Hi5 cells were infected with AChE-FL-bac (FL), AChE-6MC-bac (6MC) or WT-bac (WT) respectively, for 3 days. After the removal of media, the cells were subjected to a 5-hour lyophilization in the 96-well plates. Two OP and two CB insecticide compounds were serial-diluted and added to the infected cell samples, as well as a 100 mU/mL AChE (ST, Abcam) in 96-well plates and the commercialized AChE (Sichen) in cuvette for a further comparison. AChE activities were analyzed for all these sample in order to determine the sensitivities of these AChE to different insecticides. DMSO with different concentrations in DPBS were added to determine the background effects. Pesticides tested are: (a) paraoxon ethyl, (b) malaoxon, (c) carbofuran (d) carbaryl.
(§2) AChE activity was determined by Ellman's method. For each 96-well, 50 μl of 3 mM ATCh and 50 μl of 3 mM Ellman's reagent DTNB solution was added. After 10 minutes of incubation at room temperature, average absorbance at 412 nm was determined. […] The diluted solutions were then added individually into 96-well microplates with Hi5 cells infected by the seven recombinant viruses (vDmAChE, vHsAChE, vRnAChE, vAmAChE, vSfAChE, DamAChE, and vBdAChE). After incubation for 10 minutes, substrate ATCh and DTNB solution were added to the reaction mixture. After 10 minutes of incubation at room temperature, residual activity was determined with a microplate reader at 412 nm.
(§3) The acetylcholinesterase stock solution was diluted into 50 units/mL in assay buffer at ratio 1:50 to generate 1000 mU/mL acetylcholinesterase standard solution. Then, the 1000 mU/mL acetylcholinesterase standard solution was further diluted into 300, 100, 30, 10, 3, 1 and 0 mU/mL for determining the average absorbance of each standard. The reading of each standard was plotted as a function of the amount of acetylcholinesterase to establish a standard curve, and the corresponding amount of AChE in each test samples was calculated by the derived linear equation. […]
(§4) The remaining activity of AChE is evaluated by the following equation: […]
(§5) In which, ΔA0 indicates the change of absorbance of the positive control, and ΔAS indicates the change of absorbance of the applied pesticide incubated solution.
(§6) As for a comparison, the test results using the most common AChE insecticide diagnostic kit in Taiwan sold by Sichen Inc. were also included, and the IC50 for all of the test samples were also calculated (Table 1). For Sichen, since they acquire the AChE from fly, also they have to use cuvette (1 mL) for measurement, thus high quantity of AChE should be used. […] 96-well plate was applied, which requires only 100 μL solution for detection, and easily to handle, and can be read by bare eye for the detection of residue pesticides.

[2] = target: T2, AChE-6MC (truncated AChE Y408F fused with TM and CTD of baculovirus GP64, displayed on Hi5 cells) (Drosophila melanogaster, UniProt P07140, R99G/Y408F); test: Inhibition of cell-surface displayed AChE-6MC (Ellman's method, ATCh/DTNB, 412 nm); format: biochemical
T2 construct: honeybee mellitin signal peptide (HM) (N); expressed in transfected cells; host or cells: Trichoplusia ni High Five (Hi5) cells infected with recombinant baculovirus vAChE-6MC, lyophilised in the plate
Protocol: as §1, §2, §3, §4, §5, §6

[3] = target: AChE (Abcam) (UniProt O42275); test: Inhibition of purified standard AChE (Abcam); format: biochemical
Protocol: AChE activity was determined by Ellman's method. For each 96-well, 50 μl of 3 mM ATCh and 50 μl of 3 mM Ellman's reagent DTNB solution was added. After 10 minutes of incubation at room temperature, average absorbance at 412 nm was determined. […] The diluted solutions were then added individually into 96-well microplates with Hi5 cells infected by the seven recombinant viruses (vDmAChE, vHsAChE, vRnAChE, vAmAChE, vSfAChE, DamAChE, and vBdAChE). […] After 10 minutes of incubation at room temperature, residual activity was determined with a microplate reader at 412 nm.

[4] = target: commercialized AChE (Sichen) (Musca domestica, UniProt Q7YWJ9); test: Inhibition of commercial AChE kit (Sichen), cuvette; format: biochemical, fly
Protocol: as §1
Acetylcholinesterase Assay Kit (standard AChE) was purchased from Abcam. Rapid Bioassay of Pesticides Residues Reagent Kit (commercial AChE) was purchased from Sichen.
The acetylcholinesterase stock solution was diluted into 50 units/mL in assay buffer at ratio 1:50 to generate 1000 mU/mL acetylcholinesterase standard solution. Then, the 1000 mU/mL acetylcholinesterase standard solution was further diluted into 300, 100, 30, 10, 3, 1 and 0 mU/mL for determining the average absorbance of each standard. The reading of each standard was plotted as a function of the amount of acetylcholinesterase to establish a standard curve, and the corresponding amount of AChE in each test samples was calculated by the derived linear equation. To calculate the inhibition of AChEs activity (%), vCont-Bac infected cells (without expression of AChE on the surface) served as the negative control, whereas Abcam purified protein, Sichen commercial protein, vAChE-FL and vAChE-6MC infected cells without pesticide incubation served as the positive control. The activity of the positive control was considered 100%.
The remaining activity of AChE is evaluated by the following equation:
Inhibition of AChEs activity (%)(ΔA0−ΔAS)/ΔA0)×100
as §5
As for a comparison, the test results using the most common AChE insecticide diagnostic kit in Taiwan sold by Sichen Inc. were also included, and the IC50 for all of the test samples were also calculated (Table 1). For Sichen, since they acquire the AChE from fly, also they have to use cuvette (1 mL) for measurement, thus high quantity of AChE should be used. […] In the present application, however, there are no need for fly rearing and no need for AChE purification. 96-well plate was applied, which requires only 100 μL solution for detection, and easily to handle, and can be read by bare eye for the detection of residue pesticides.

[5] = read-out: IC50 of OP and CB towards AChEs, Abcam; 100 mU/mL purified AChE standard, 96-well plate
[6] = Hi5 cells infected with vAChE-FL, 3 days, lyophilized 5 h, 96-well plate, read-out: IC50 of OP and CB towards AChEs, AChE-FL
[7] = Hi5 cells infected with vAChE-6MC, 3 days, lyophilized 5 h, 96-well plate, read-out: IC50 of OP and CB towards AChEs, AChE-6MC
[8] = commercialized AChE kit, cuvette (1 mL), read-out: IC50 of OP and CB towards AChEs, Sichen

| SMILES | IC50 [1] [µM] | IC50 [2] [nM] | IC50 [3, 5] [nM] | IC50 [4] [nM] | IC50 [1, 6] [µM] | IC50 [2, 7] [nM] | IC50 ([3]; 100 mU/mL purified AChE standard, 96-well plate; read-out: IC50 of OP and CB towards AChEs, Abcam) [nM] | IC50 [4, 8] [nM] |
| --- | --- | --- | --- | --- | --- | --- | --- | --- |
| CNC(=O)Oc1cccc2ccccc12 [Carbaryl, carbaryl] | 6.8 | 650 | 6500 | 5900 |  |  |  |  |
| CNC(=O)Oc1cccc2c1OC(C)(C)C2 [Carbofuran, carbofuran] |  |  |  |  | 48 | 4500 | 540 | 2800 |
| CCOC(=O)CC(SP(=O)(OC)OC)C(=O)OCC (stereo not drawn) [Malaoxon, malaoxon] | 0.56 | 62 | 820 | 950 |  |  |  |  |
| CCOP(=O)(OCC)Oc1ccc([N+](=O)[O-])cc1 [Paraoxon ethyl, paraoxon ethyl] |  |  |  |  | 0.49 | 55 |  | 2300 |
